Data taken from BindingDB's records for doi:10.1021/jm020355o (University of Arizona, 2003).

Experiment: Antagonistic activity towards Melanocortin 1 receptor in Xenopus frog skin using competitive binding in the presence of 500 pM of alpha-melanocyte stimulating hormone

Row | SMILES | IC50
1 | CC(C)[C@H](NC(=O)[C@@H]1CCC(=O)N2CCC[C@H]2C(=O)N[C@H](Cc2ccc3ccccc3c2)C(=O)N[C@@H](CCCN=C(N)N)C(=O)N[C@@H](Cc2c[nH]c3ccccc23)C(=O)N1)C(=O)N[C@H](C(=O)NCC(N)=O)C(C)C [c[Pro-D-Nal(2')-Arg-Trp-Glu]-Val-Val-Gly-NH2] | 1500 nM
2 | CC(C)[C@H](NC(=O)[C@@H]1CCC(=O)NCC(=O)N2CCC[C@H]2C(=O)N[C@H](Cc2ccccc2)C(=O)N[C@@H](CCCN=C(N)N)C(=O)N[C@@H](Cc2c[nH]c3ccccc23)C(=O)N1)C(=O)N[C@H](C(=O)NCC(N)=O)C(C)C [19-Benzyl-16-(3-guanidino-propyl)-13-(1H-indol-3-ylmethyl)-4,7,12,15,18,21-hexaoxo-docosahydro-3a,6,11,14,17,20-hexaaza-cyclopentacycloicosene-10-carboxylic acid {1-[1-(carbamoylmethyl-carbamoyl)-2-methyl-propylcarbamoyl]-2-methyl-propyl}-amide] | 10000 nM
3 | CC(C)[C@H](NC(=O)[C@@H]1CCC(=O)NCC(=O)N2CCC[C@H]2C(=O)N[C@H](Cc2ccc3ccccc3c2)C(=O)N[C@@H](CCCN=C(N)N)C(=O)N[C@@H](Cc2c[nH]c3ccccc23)C(=O)N1)C(=O)N[C@H](C(=O)NCC(N)=O)C(C)C [c[Gly-Pro-D-Nal(2')-Arg-Trp-Glu]-Val-Val-Gly-NH2] | 637 nM
